From ChEMBL document CHEMBL5131539, “Insights on JAK2 Modulation by Potent, Selective, and Cell-Permeable Pseudokinase-Domain Ligands” (J Med Chem, 2022)
pKd: −log10 of the molar value. Values belong to the compound of their own block, whether it stands above or below them. The source made the active and inactive calls. The calls are words filed in the database; no cut-off is given here.

Assays:
[1] = biological target: T1, Tyrosine-protein kinase JAK2 (Homo sapiens, UniProt O60674); test: biochemical
[2] = biological target: T1, Tyrosine-protein kinase JAK2; test: biochemical; remark: listed apart in the source
[3] = biological target: Tyrosine-protein kinase JAK2 (Homo sapiens, UniProt O60674, V617F); test: biochemical
[4] = biological target: T1, Tyrosine-protein kinase JAK2; test: Inhibition of JAK2 JH2 (unknown origin) expressed in baculovirus infected Sf9 cells at 50 uM incubated upto 30 mins in the presence of tracer by competitive fluorescence polarization analysis relative to control
[5] = pampa, pH 7.4, 18 h
[6] = system: Tyrosine-protein kinase JAK2 (Homo sapiens), O60674 [V617F]; test: Inhibition of JAK2 JH2 V617F mutant in human HEL cells assessed as reduction in STAT5 phosphorylation at 20 uM measured after 3 hrs by Western blotting analysis; type: cell-based
[7] = system: Tyrosine-protein kinase JAK2 (Homo sapiens), O60674 [V617F]; test: Inhibition of JAK2 JH2 V617F mutant in human HEL cells assessed as reduction in STAT5 phosphorylation at 10 to 20 uM incubated for 1 hrs by Western blotting analysis; type: cell-based; settings: dose 10-20 µM
[8] = biological target: T1, Tyrosine-protein kinase JAK2; test: Inhibition of wild type JAK2 JH2 in human TF-1 cells assessed as reduction in STAT5 phosphorylation at 10 to 20 uM incubated for 1 hrs by Western blotting analysis; type: cell-based; settings: dose 10-20 µM

T1 sequence (O60674 whole entry): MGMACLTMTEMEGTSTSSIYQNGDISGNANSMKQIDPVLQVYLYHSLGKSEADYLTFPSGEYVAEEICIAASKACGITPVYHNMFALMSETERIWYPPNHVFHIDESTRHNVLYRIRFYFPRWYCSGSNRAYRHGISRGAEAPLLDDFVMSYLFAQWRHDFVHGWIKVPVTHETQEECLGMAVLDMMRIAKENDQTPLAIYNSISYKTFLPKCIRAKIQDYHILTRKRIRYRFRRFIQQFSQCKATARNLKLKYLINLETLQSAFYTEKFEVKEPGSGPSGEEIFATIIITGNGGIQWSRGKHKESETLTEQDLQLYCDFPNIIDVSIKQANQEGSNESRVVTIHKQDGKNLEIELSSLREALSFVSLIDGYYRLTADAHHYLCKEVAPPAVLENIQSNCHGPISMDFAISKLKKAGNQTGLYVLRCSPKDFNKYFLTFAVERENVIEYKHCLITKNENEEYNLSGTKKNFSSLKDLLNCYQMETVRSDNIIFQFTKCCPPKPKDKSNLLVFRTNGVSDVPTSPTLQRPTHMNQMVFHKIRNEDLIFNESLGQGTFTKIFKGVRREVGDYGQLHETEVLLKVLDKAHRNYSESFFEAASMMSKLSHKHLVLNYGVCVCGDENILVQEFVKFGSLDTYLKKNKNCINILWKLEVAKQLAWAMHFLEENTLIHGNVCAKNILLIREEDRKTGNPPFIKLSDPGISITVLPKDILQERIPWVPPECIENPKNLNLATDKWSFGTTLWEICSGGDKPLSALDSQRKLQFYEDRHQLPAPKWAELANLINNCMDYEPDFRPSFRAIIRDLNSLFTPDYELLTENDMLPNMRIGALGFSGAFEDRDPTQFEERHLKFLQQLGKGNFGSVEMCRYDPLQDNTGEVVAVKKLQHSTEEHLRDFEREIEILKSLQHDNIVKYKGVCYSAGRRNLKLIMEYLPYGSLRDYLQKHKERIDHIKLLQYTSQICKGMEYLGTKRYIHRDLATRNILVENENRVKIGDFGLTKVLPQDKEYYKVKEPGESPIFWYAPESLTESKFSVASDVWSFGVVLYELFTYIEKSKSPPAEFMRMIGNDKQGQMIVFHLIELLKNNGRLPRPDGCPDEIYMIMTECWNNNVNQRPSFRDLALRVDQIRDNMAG
Tyrosine-protein kinase JAK2 (Homo sapiens, UniProt O60674, V617F), sequence (O60674 whole entry V617F): as the sequence (O60674 whole entry) above, with V617F counted along it
Tyrosine-protein kinase JAK2 (Homo sapiens), O60674 [V617F], sequence (O60674 whole entry V617F): as the sequence (O60674 whole entry) above, with V617F counted along it

Compound: Nc1nc(Nc2ccc(S(N)(=O)=O)cc2)nn1C(=O)Nc1ccc(-c2ccnc(C(=O)O)c2)cc1
pKd [1]: 6.40 | pKd [2]: 5.09 | pKd [3]: 6.88

Compound: COC(=O)c1cccc(-c2ccc(NC(=O)n3nc(Nc4ccc(S(N)(=O)=O)cc4)nc3N)cc2)c1
inhibition [4]: 27% | permeability [5]: 0.09 10^-6 cm/s

Compound: CNC(=O)c1ccc(Nc2nc(N)n(C(=O)Nc3ccc(-c4cc(OCc5ccccc5)cc(C(=O)O)c4)cc3)n2)cc1
permeability [5]: 0.971 10^-6 cm/s | pKd [1]: 7.36 | pKd [2]: 5.23 | pKd [3]: 7.30

inhibition [4]: 30.5%
Compound: Nc1nc(Nc2ccc(S(N)(=O)=O)cc2)nn1C(=O)Nc1ccc(-c2ccccc2)cc1

Compound: Nc1nc(Nc2ccc(S(N)(=O)=O)cc2)nn1C(=O)Nc1ccc(-c2cncc(C(=O)O)c2)cc1
pKd [1]: 6.19

Compound: Nc1nc(Nc2ccc(S(N)(=O)=O)cc2)nn1C(=O)Nc1ccc(-c2cc(OCc3ccccc3)cc(C(=O)O)c2)cc1
permeability [5]: 1.15 10^-6 cm/s | pKd [1]: 7.12 | pKd [2]: 5.47 | pKd [3]: 7.21

Compound: Nc1nc(Nc2ccc(S(N)(=O)=O)cc2)nn1C(=O)Nc1ccc(-c2cccc(C(=O)O)n2)cc1
pKd [1]: 6.03

Compound: Nc1nc(Nc2ccc(S(N)(=O)=O)cc2)nn1C(=O)Nc1ccc(-c2ccc(C(=O)O)cc2)cc1
pKd [1]: 6.81

Compound: Nc1nc(Nc2ccc(S(N)(=O)=O)cc2)nn1C(=O)Nc1ccc(-c2cncc(C(=O)O)n2)cc1
pKd [1]: 5.85

Compound: Nc1nc(Nc2ccc(S(N)(=O)=O)cc2)nn1C(=O)Nc1ccc(-c2cccc(C(=O)O)c2)cc1
permeability [5]: 0.015 10^-6 cm/s | pKd [1]: 6.89

Compound: CNC(=O)c1ccc(Nc2nc(N)n(C(=O)Nc3ccc(-c4ccc(OCc5ccccc5)c(C(=O)O)c4)cc3)n2)cc1
inhibition [6]: Active | inhibition [7]: Active | inhibition [8]: Active | permeability [5]: 0.24 10^-6 cm/s | pKd [2]: 5.17 | pKd [3]: 7.37
